In patent publication US20060111368A1, “Phosphodiesterase inhibitor” (Kyowa Hakko Kogyo Co., Ltd., priority 2002, published 2006):
Structures can show the parent of a compound that is named as a salt. Where two headings read alike, the source gives them in different places.

Key:
[1] = target: T1, PDE10A (Homo sapiens, UniProt Q9Y233); test: Activity of inhibiting PDE10A activity ([3H]cAMP decomposition inhibiting test); assay type: biochemical; conditions: for inhibition at 1 µM: read-out: [3H] cAMP decomposition inhibition rate (%); for IC50: read-out: IC50 (concentration at which to inhibit [3H]cAMP decomposition by 50%)
T1 construct: made in house; host or cells: Sf9 insect cells (baculovirus, pVL1393)
T1 sequence (Q9Y233 340-1055): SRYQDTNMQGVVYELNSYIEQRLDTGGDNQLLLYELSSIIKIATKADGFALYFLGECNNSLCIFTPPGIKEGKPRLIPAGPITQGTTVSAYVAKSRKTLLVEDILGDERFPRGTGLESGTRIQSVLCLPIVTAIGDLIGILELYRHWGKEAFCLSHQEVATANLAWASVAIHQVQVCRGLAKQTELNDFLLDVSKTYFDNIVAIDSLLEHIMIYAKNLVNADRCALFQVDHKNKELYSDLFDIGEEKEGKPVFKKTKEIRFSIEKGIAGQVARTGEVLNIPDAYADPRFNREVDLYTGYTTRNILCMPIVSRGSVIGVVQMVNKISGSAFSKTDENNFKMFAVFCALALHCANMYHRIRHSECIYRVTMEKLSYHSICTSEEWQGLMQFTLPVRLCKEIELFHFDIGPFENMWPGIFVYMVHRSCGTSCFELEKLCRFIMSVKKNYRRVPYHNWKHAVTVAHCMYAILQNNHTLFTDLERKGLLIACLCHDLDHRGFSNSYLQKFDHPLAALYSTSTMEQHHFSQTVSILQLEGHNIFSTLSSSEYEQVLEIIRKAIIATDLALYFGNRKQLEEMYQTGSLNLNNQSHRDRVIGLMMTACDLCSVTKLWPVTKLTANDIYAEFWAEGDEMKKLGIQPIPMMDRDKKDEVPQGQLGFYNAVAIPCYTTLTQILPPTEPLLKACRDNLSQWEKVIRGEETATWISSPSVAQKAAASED
Experimental: Activity of Inhibiting PDE10A Activity (^3H]cAMP Decomposition Inhibiting Test)
PCR was performed using DNAs having base sequences described in SEQ ID NO. 1 and SEQ ID NO. 2 as primers and human kidney cDNA as a template to prepare a plasmid containing amplified fragments. The plasmid was cleaved with restriction endonucleases Pst I and Xba I to obtain a Pst I-Xba I fragment of 0.7 kb.
Meanwhile, Est clone (Cosmo Bio, Tokyo) of GenBank, ACCESSION WO 4835 was cleaved with restriction endonucleases Kpn I and Pst I to obtain a Kpn I-Pst I fragment of 1.5 kb.
The resulting Pst I-Xba I fragment of 0.7 kb and Kpn I-Pst I fragment of 1.5 kb were subcloned in a Kpn I-Xba I site of pBluescript II KS(−) (STRATAGENE, La Jolla, Calif., USA),to construct a plasmid having a cDNA fragment completely including a catalyst region of PDE10A. Subsequently, the plasmid was cleaved with restriction endonucleases Kpn I and Not I to obtain a Kpn I-Not I fragment of 2.2 kb.
The resulting Kpn I-Not I fragment of 2.2 kb and a linker having a BamH I-Kpn I cleavage surface prepared by synthetic DNA having base sequences described in SEQ ID NOS. 3 and 4 were subcloned in a BamH I-Not I site of pVL1393 (PharMingen, San Diego, Calif., USA) to obtain a plasmid for preparation of Baculovirus. The plasmid contains a DNA encoding a peptide in which methionine, FLAG tag and a peptide having a 64th to 779th amino acid sequence of PDE10A [GenBank, ACCESSION NP 006652: Gene, vol. 234, p. 109 (1999), J. Biol. Chem., vol. 274, p. 18438 (1999)] are bound in the order.
The above gene recombinational manipulation was performed according to the method described in Molecular Cloning, 2nd edition, Cold Spring Harbor Laboratory Press, New York (1989).
The expression of PDE10A was conducted according to the Baculovirus expression vector system manual (PharMingen) using insect cells. As insect cells, Sf9 cells (Asahi Technoglass, Tokyo) were used. Sf9 cells were infected with a supernatant (co-transfection sup) containing PDE10A expression virus prepared according to the manual, and cultured at 27° C. for 4 days. The cells were recovered, washed with a phosphate-buffered saline (PBS), and then suspended in an extraction solution [20 mmol/L Tris-acetate (pH 7.5), 2 mmol/L MgCl2, 1 mmol/L dithiothreitol, 1 mmol/L ethylenediaminetetraacetic acid (EDTA), 0.25 mol/L sucrose, 250 unit/mL aprotinin, 40 μg/mL phenylmethylsulfonyl fluoride, and 1 μg/mL pepstatin A]. The cells were disrupted in ice with the maximum output under conditions of 5 seconds and five times using an ultrasonic disruption machine (TOMY model UR-200R, TOMY, Tokyo). A soluble fraction was obtained by centrifugation under 10,000 rpm of the fraction at 4° C. for 30 minutes, and the resulting soluble fraction was used for measuring the PDE activity.
The PDE activity was measured according to the method described in Methods Enzymol., vol. 159, p. 457 (1988).
Using [^3H]cAMP as a substrate, an enzyme reaction was conducted in a reaction solution containing 300 μL of 50 mmol/L N,N-bis (2-hydroxyethyl)-2-aminoethanesulfonic acid (pH 7.2), 1 mmol/L MgCl2 and 0.1 mmol/L ethylene glycol-bis (β-aminoethyl ether)-N,N,N′,N′-tetraacetic acid: EGTA). The concentration of the substrate was 0.2 μmol/L. To 95 μL of an enzyme dilute solution were added 5 μL of a test compound (DMSO solution) and 200 μL of a substrate solution. The mixture was incubated at 30° C. for 20 minutes, and then HCl was added to stop the reaction. The reaction product (5′-AMP) was converted to adenosine using 5′-nucleotidase, and separated the unreacted product from the reactant by DEAE-Sephadex A-25 column (Amersham Pharmacia Biotech, Uppsala, Sweden). The elute was moved to scintillation vials, 6 mL of Ultima Gold (Packard Instrument, Meriden, Conn., USA) was added, and the radioactivity was measured for 2 minutes using a liquid scintillation counter (Beckman LS6500, Beckman, Tokyo),. […]

[2] = Test compound concentration 1 μmol/L, substrate [3H]cAMP 0.2 μmol/L

melting point [°C] | inhibition at 1 µM [1, 2] [%] | IC50 ([1]; substrate [3H]cAMP 0.2 μmol/L) [µM] | Compound | inhibition at 1 µM [1] [%]
> 300 |  |  | Cc1c(-c2ccc(Br)cc2)nc2ccc(F)cc2c1C(=O)O | 
> 300 |  |  | COc1ccc(F)cc1-c1ccc(-c2nc3ccc(F)cc3c(C(=O)O)c2C)cc1 | 
> 300 |  |  | COc1ccc(-c2ccc(-c3nc4ccc(F)cc4c(C(=O)O)c3C)cc2)c(OC)c1 | 
227 to 229 |  |  | Cc1c(-c2ccc(-c3ccccc3-c3ccccc3)cc2)nc2ccc(F)cc2c1N | 
203 to 205 |  |  | Cc1c(-c2ccc(-c3ccccc3CNCCO)cc2)nc2ccc(F)cc2c1CO (as salt: hydrochloride) | 
190 to 192 |  |  | Cc1c(-c2ccc(-c3ccccc3CN3CCOCC3)cc2)nc2ccc(F)cc2c1CO (as salt: hydrochloride) [Compound 12, 6-Fluoro-4-hydroxymethyl-3-methyl-2-(2′-morpholinomethylbiphenyl-4-yl)quinoline dihydrochloride] | 
121 to 123 | 99 | 0.0042 | Cc1c(-c2ccc(-c3ccccc3-c3ccccc3)cc2)nc2ccc(F)cc2c1CO [Compound 1, 6-Fluoro-4-hydroxymethyl-3-methyl-2-([1,1′:2′,1″-terphenyl]-4-yl)quinoline] | 
178 to 179 | 97 | 0.066 | COc1ccccc1-c1ccc(-c2nc3ccc(F)cc3c(CO)c2C)cc1 [Compound 2, 6-Fluoro-4-hydroxymethyl-2-(2′-methoxybiphenyl-4-yl)-3-methylquinoline] | 
140 to 143 | 97 | 0.076 | CCOc1ccccc1-c1ccc(-c2nc3ccc(F)cc3c(CO)c2C)cc1 [Compound 3, 2-(21-Ethoxybiphenyl-4-yl)-6-fluoro-4-hydroxymethyl-3-methylquinoline] | 
199 to 200 | 83 |  | CCOc1cccc(-c2ccc(-c3nc4ccc(F)cc4c(CO)c3C)cc2)c1 [Compound 4, 2-(31-Ethoxybiphenyl-4-yl)-6-fluoro-4-hydroxymethyl-3-methylquinoline] | 
211 to 212 |  |  | CCOc1ccc(-c2ccc(-c3nc4ccc(F)cc4c(CO)c3C)cc2)cc1 [Compound 5, 2-(4′-Ethoxybiphenyl-4-yl)-6-fluoro-4-hydroxymethyl-3-methylquinoline] | 
 | 91 | 0.098 | Cc1c(-c2ccc(-c3ccccc3F)cc2)nc2ccc(F)cc2c1CO [Compound 6, 6-Fluoro-2-(2′-fluorobiphenyl-4-yl)-4-hydroxymethyl-3-methylquinoline] | 
202 to 203 | 97 | 0.034 | COc1ccc(F)cc1-c1ccc(-c2nc3ccc(F)cc3c(CO)c2C)cc1 [Compound 7, 6-Fluoro-2-(5′-fluoro-2′-methoxybiphenyl-4-yl)-4-hydroxymethyl-3-methylquinoline] | 
205 to 207 | 68 |  | COc1ccc(-c2ccc(-c3nc4ccc(F)cc4c(CO)c3C)cc2)c(OC)c1 [Compound 8, 2-(2′,4′-dimethoxybiphenyl-4-yl)-6-fluoro-4-hydroxym ethyl-3-methylquinoline] | 
192 to 194 |  |  | Cc1c(-c2ccc(-c3ccccc3C=O)cc2)nc2ccc(F)cc2c1CO [Compound 9] | 
193 to 195 |  |  | CNCc1ccccc1-c1ccc(-c2nc3ccc(F)cc3c(CO)c2C)cc1 [Compound 10, 6-Fluoro-4-hydroxymethyl-3-methyl-2-[2′-(methylamino)methylbiphenyl-4-yl]quinoline] | 
154 to 156 | 90 | 0.173 | Cc1c(-c2ccc(-c3ccccc3CN3CCN(c4ccccc4)CC3)cc2)nc2ccc(F)cc2c1CO [Compound 11, 6-Fluoro-4-hydroxymethyl-3-methyl-2-[2′-(4-phenylpiperazin-1-yl)methylbiphenyl-4-yl]quinoline] | 
201 to 202 | 90 | 0.103 | Cc1c(-c2ccc(-c3ccccc3CNc3ccccc3)cc2)nc2ccc(F)cc2c1CO [Compound 13, 6-Fluoro-4-hydroxymethyl-3-methyl-2-[2′-(phenylamino)methylbiphenyl-4-yl]quinoline] | 
164 to 165 |  |  | COC(=O)c1c(C)c(-c2ccc(-c3ccccc3-c3ccccc3)cc2)nc2ccc(F)cc12 [Compound 15, Methyl 6-fluoro-3-methyl-2-([1,1′:2′,1″-terphenyl]-4-yl)quinoline-4-carboxylate] | 
 |  |  | CC(=O)c1c(C)c(-c2ccc(-c3ccccc3-c3ccccc3)cc2)nc2ccc(F)cc12 [Compound 16, 4-Acetyl-6-fluoro-3-methyl-2-([1,1′:2′,11″-terphenyl]-4-yl)quinoline] | 80
153 to 155 | 70 | 0.373 | Cc1c(-c2ccc(-c3ccccc3-c3ccccc3)cc2)nc2ccc(F)cc2c1C#N [Compound 17, 6-Fluoro-3-methyl-2-([1,1′;2′,1″-terphenyl]-4-yl)quinoline-4-carbonitrile] | 
194 to 195 | 97 | 0.0048 | Cc1c(-c2ccc(-c3ccccc3-c3ccccc3)cc2)nc2ccc(F)cc2c1C [Compound 18, 3,4-Dimethyl-6-fluoro-2-([1,1′:2′,1″-terphenyl]-4-yl)quinoline] | 
128 to 129 |  |  | COC(=O)c1c(C)c(N2CCN(c3ccccc3OC)CC2)nc2ccc(F)cc12 [Compound 19, Methyl 6-Fluoro-2-[4-(2-methoxyphenyl)piperazin-1-yl]-3-methylquinoline-4-carboxylate] | 
190 to 191 |  |  | COc1ccccc1N1CCN(c2nc3ccc(F)cc3c(CO)c2C)CC1 [Compound 20, 6-Fluoro-4-hydroxymethyl-2-[4-(2-methoxyphenyl)piperazin-1-yl]-3-methylquinoline] | 
222 to 240 |  |  | Cc1c(-c2ccc(Br)cc2)nc2ccc(F)cc2c1CO [Compound 21, 2-(4-Bromophenyl)-6-fluoro-4-hydroxymethyl-3-methylquinoline] | 
> 300 | 99 | 0.016 | Cc1c(-c2ccc(-c3ccccc3C=O)cc2)nc2ccc(F)cc2c1C(=O)O [Compound J, 6-Fluoro-2-(2′-formylbiphenyl-4-yl)-3-methylquinoline-4-carboxylic acid] | 
 | 99 | 0.0055 | CCOc1ccccc1-c1ccc(-c2nc3ccc(F)cc3c(C(=O)O)c2C)cc1 [I, 2-(2′-Ethoxybiphenyl-4-yl)-6-fluoro-3-methylquinoline-4-carboxylic acid] | 

Compound | melting point [°C] | inhibition at 1 µM [1, 2] [%] | IC50 ([1]; substrate [3H]cAMP 0.2 μmol/L) [µM] | inhibition at 1 µM [1] [%]
Cc1c(-c2ccc(-c3ccccc3-c3ccccc3)cc2)nc2ccc(F)cc2c1C(=O)O [Compound C, 6-Fluoro-3-methyl-2-([1,1′:2′,1″-terphenyl)-4-yl)quinoline-4-carboxylic acid] | > 300 |  | 0.0009 | 99
